Values of other authors, collected in paper PMC11728000, “Antitumor Activity and Multi-Target Mechanism of Phenolic Schiff Bases Bearing Methanesulfonamide Fragments: Cell Cycle Analysis and a Molecular Modeling Study” (International Journal of Molecular Sciences, 2024).

Tests used:
CCRF-CEM = tested on: CCRF-CEM; parameters: method as in https://dtp.cancer.gov/dtpstandard/dwindex/index.jsp; details: ref https://dtp.cancer.gov/dtpstandard/dwindex/index.jsp; cited from earlier work
MOLT-4 = tested on: MOLT-4; parameters: method as in https://dtp.cancer.gov/dtpstandard/dwindex/index.jsp; details: ref https://dtp.cancer.gov/dtpstandard/dwindex/index.jsp; cited from earlier work
SR = tested on: SR; parameters: method as in https://dtp.cancer.gov/dtpstandard/dwindex/index.jsp; details: ref https://dtp.cancer.gov/dtpstandard/dwindex/index.jsp; cited from earlier work
HOP-62 = tested on: HOP-62; parameters: method as in https://dtp.cancer.gov/dtpstandard/dwindex/index.jsp; details: ref https://dtp.cancer.gov/dtpstandard/dwindex/index.jsp; cited from earlier work
NCI-H23 = tested on: NCI-H23; parameters: method as in https://dtp.cancer.gov/dtpstandard/dwindex/index.jsp; details: ref https://dtp.cancer.gov/dtpstandard/dwindex/index.jsp; cited from earlier work
NCI-H322M = tested on: NCI-H322M; parameters: method as in https://dtp.cancer.gov/dtpstandard/dwindex/index.jsp; details: ref https://dtp.cancer.gov/dtpstandard/dwindex/index.jsp; cited from earlier work
NCI-H522 = tested on: NCI-H522; parameters: method as in https://dtp.cancer.gov/dtpstandard/dwindex/index.jsp; details: ref https://dtp.cancer.gov/dtpstandard/dwindex/index.jsp; cited from earlier work
KM12 = tested on: KM12; parameters: method as in https://dtp.cancer.gov/dtpstandard/dwindex/index.jsp; details: ref https://dtp.cancer.gov/dtpstandard/dwindex/index.jsp; cited from earlier work
SF-539 = tested on: SF-539; parameters: method as in https://dtp.cancer.gov/dtpstandard/dwindex/index.jsp; details: ref https://dtp.cancer.gov/dtpstandard/dwindex/index.jsp; cited from earlier work
LOX IMVI = tested on: LOX IMVI; parameters: method as in https://dtp.cancer.gov/dtpstandard/dwindex/index.jsp; details: ref https://dtp.cancer.gov/dtpstandard/dwindex/index.jsp; cited from earlier work
M14 = tested on: M14; parameters: method as in https://dtp.cancer.gov/dtpstandard/dwindex/index.jsp; details: ref https://dtp.cancer.gov/dtpstandard/dwindex/index.jsp; cited from earlier work
MDA-MB-435 = tested on: MDA-MB-435; parameters: method as in https://dtp.cancer.gov/dtpstandard/dwindex/index.jsp; details: ref https://dtp.cancer.gov/dtpstandard/dwindex/index.jsp; cited from earlier work
UACC-257 = tested on: UACC-257; parameters: method as in https://dtp.cancer.gov/dtpstandard/dwindex/index.jsp; details: ref https://dtp.cancer.gov/dtpstandard/dwindex/index.jsp; cited from earlier work
UACC-62 = tested on: UACC-62; parameters: method as in https://dtp.cancer.gov/dtpstandard/dwindex/index.jsp; details: ref https://dtp.cancer.gov/dtpstandard/dwindex/index.jsp; cited from earlier work
IGROV1 = tested on: IGROV1; parameters: method as in https://dtp.cancer.gov/dtpstandard/dwindex/index.jsp; details: ref https://dtp.cancer.gov/dtpstandard/dwindex/index.jsp; cited from earlier work
OVCAR-5 = tested on: OVCAR-5; parameters: method as in https://dtp.cancer.gov/dtpstandard/dwindex/index.jsp; details: ref https://dtp.cancer.gov/dtpstandard/dwindex/index.jsp; cited from earlier work
SK-OV-3 = tested on: SK-OV-3; parameters: method as in https://dtp.cancer.gov/dtpstandard/dwindex/index.jsp; details: ref https://dtp.cancer.gov/dtpstandard/dwindex/index.jsp; cited from earlier work
786-0 = tested on: 786-0; parameters: method as in https://dtp.cancer.gov/dtpstandard/dwindex/index.jsp; details: ref https://dtp.cancer.gov/dtpstandard/dwindex/index.jsp; cited from earlier work
ACHN = tested on: ACHN; parameters: method as in https://dtp.cancer.gov/dtpstandard/dwindex/index.jsp; details: ref https://dtp.cancer.gov/dtpstandard/dwindex/index.jsp; cited from earlier work
RXF 393 = tested on: RXF 393; parameters: method as in https://dtp.cancer.gov/dtpstandard/dwindex/index.jsp; details: ref https://dtp.cancer.gov/dtpstandard/dwindex/index.jsp; cited from earlier work
TK-10 = tested on: TK-10; parameters: method as in https://dtp.cancer.gov/dtpstandard/dwindex/index.jsp; details: ref https://dtp.cancer.gov/dtpstandard/dwindex/index.jsp; cited from earlier work
UO-31 = tested on: UO-31; parameters: method as in https://dtp.cancer.gov/dtpstandard/dwindex/index.jsp; details: ref https://dtp.cancer.gov/dtpstandard/dwindex/index.jsp; cited from earlier work
DU-145 = tested on: DU-145; parameters: method as in https://dtp.cancer.gov/dtpstandard/dwindex/index.jsp; details: ref https://dtp.cancer.gov/dtpstandard/dwindex/index.jsp; cited from earlier work
MDA-MB-231/ATCC = tested on: MDA-MB-231/ATCC; parameters: method as in https://dtp.cancer.gov/dtpstandard/dwindex/index.jsp; details: ref https://dtp.cancer.gov/dtpstandard/dwindex/index.jsp; cited from earlier work
HS 578T = tested on: HS 578T; parameters: method as in https://dtp.cancer.gov/dtpstandard/dwindex/index.jsp; details: ref https://dtp.cancer.gov/dtpstandard/dwindex/index.jsp; cited from earlier work
MDA-MB-468 = tested on: MDA-MB-468; parameters: method as in https://dtp.cancer.gov/dtpstandard/dwindex/index.jsp; details: ref https://dtp.cancer.gov/dtpstandard/dwindex/index.jsp; cited from earlier work
[1] = tested on: CNS Cancer subpanel tumor cell lines; details: cited from earlier work; for GI50: read-out: GI50, subpanel average, ref https://dtp.cancer.gov/dtpstandard/dwindex/index.jsp; for TGI, subpanel average: ref https://dtp.cancer.gov/dtpstandard/dwindex/index.jsp
[2] = tested on: Melanoma subpanel tumor cell lines; details: cited from earlier work; for GI50: read-out: GI50, subpanel average, ref https://dtp.cancer.gov/dtpstandard/dwindex/index.jsp; for TGI, subpanel average: ref https://dtp.cancer.gov/dtpstandard/dwindex/index.jsp
[3] = tested on: Ovarian Cancer subpanel tumor cell lines; details: cited from earlier work; for GI50: read-out: GI50, subpanel average, ref https://dtp.cancer.gov/dtpstandard/dwindex/index.jsp; for TGI, subpanel average: ref https://dtp.cancer.gov/dtpstandard/dwindex/index.jsp
[4] = tested on: Renal Cancer subpanel tumor cell lines; details: cited from earlier work; for GI50: read-out: GI50, subpanel average, ref https://dtp.cancer.gov/dtpstandard/dwindex/index.jsp; for TGI, subpanel average: ref https://dtp.cancer.gov/dtpstandard/dwindex/index.jsp
[5] = tested on: Prostate Cancer subpanel tumor cell lines; details: cited from earlier work; for GI50: read-out: GI50, subpanel average, ref https://dtp.cancer.gov/dtpstandard/dwindex/index.jsp; for TGI, subpanel average: ref https://dtp.cancer.gov/dtpstandard/dwindex/index.jsp
[6] = tested on: 59 human cancer cell lines; details: full panel mean-graph midpoint, ref https://dtp.cancer.gov/dtpstandard/dwindex/index.jsp, cited from earlier work; for GI50: read-out: GI50 MG-MID
EKVX = tested on: EKVX; parameters: method as in https://dtp.cancer.gov/dtpstandard/dwindex/index.jsp; details: ref https://dtp.cancer.gov/dtpstandard/dwindex/index.jsp; cited from earlier work
SW-620 = tested on: SW-620; parameters: method as in https://dtp.cancer.gov/dtpstandard/dwindex/index.jsp; details: ref https://dtp.cancer.gov/dtpstandard/dwindex/index.jsp; cited from earlier work
SNB-75 = tested on: SNB-75; parameters: method as in https://dtp.cancer.gov/dtpstandard/dwindex/index.jsp; details: ref https://dtp.cancer.gov/dtpstandard/dwindex/index.jsp; cited from earlier work
OVCAR-8 = tested on: OVCAR-8; parameters: method as in https://dtp.cancer.gov/dtpstandard/dwindex/index.jsp; details: ref https://dtp.cancer.gov/dtpstandard/dwindex/index.jsp; cited from earlier work
A498 = tested on: A498; parameters: method as in https://dtp.cancer.gov/dtpstandard/dwindex/index.jsp; details: ref https://dtp.cancer.gov/dtpstandard/dwindex/index.jsp; cited from earlier work
CAKI-1 = tested on: CAKI-1; parameters: method as in https://dtp.cancer.gov/dtpstandard/dwindex/index.jsp; details: ref https://dtp.cancer.gov/dtpstandard/dwindex/index.jsp; cited from earlier work
PC-3 = tested on: PC-3; parameters: method as in https://dtp.cancer.gov/dtpstandard/dwindex/index.jsp; details: ref https://dtp.cancer.gov/dtpstandard/dwindex/index.jsp; cited from earlier work
[7] = read-out: LC50, subpanel average, ref https://dtp.cancer.gov/dtpstandard/dwindex/index.jsp

For `COc1cc2ncnc(Nc3ccc(F)c(Cl)c3)c2cc1OCCCN1CCOCC1` [Gefitinib, gefitinib], the GI50 (CCRF-CEM) is listed as 398 nM, the GI50 (MOLT-4) is listed as 2000 nM and the GI50 (SR) is listed as 3160 nM. For the same compound, the GI50 (HOP-62) was 3160 nM, the GI50 (NCI-H23) was 2510 nM and the GI50 (NCI-H322M) was 63 nM. The GI50 (NCI-H522) was 1000 nM, the GI50 (KM12) was 10000 nM and the GI50 (SF-539) was 10000 nM. The GI50 (LOX IMVI) was 3160 nM, the GI50 (M14) was 2000 nM and the GI50 (MDA-MB-435) was 3160 nM. For the same compound, the GI50 (UACC-257) was 2510 nM, the GI50 (UACC-62) was 2000 nM and the GI50 (IGROV1) was 3160 nM. For the same compound, the GI50 (OVCAR-5) was 3980 nM, the GI50 (SK-OV-3) was 1000 nM and the GI50 (786-0) was 3160 nM. For the same compound, the GI50 (ACHN) was 158 nM, the GI50 (RXF 393) was 3160 nM and the GI50 (TK-10) was 794 nM. The GI50 (UO-31) was 1580 nM, the GI50 (DU-145) was 1580 nM and the GI50 (MDA-MB-231/ATCC) was 3980 nM. For the same compound, the GI50 (HS 578T) was 7940 nM, the GI50 (MDA-MB-468) was 12.6 nM and the GI50 [1] was 5640 nM. For the same compound, the “TGI, subpanel average” value [1] was 19620 nM, the GI50 [2] was 3680 nM and the “TGI, subpanel average” value [2] was 12490 nM. The GI50 [3] was 3050 nM, the “TGI, subpanel average” value [3] was 33290 nM and the GI50 [4] was 1410 nM. For the same compound, the “TGI, subpanel average” value [4] was 12500 nM, the GI50 [5] was 3290 nM and the “TGI, subpanel average” value [5] was 31620 nM. The “TGI MG-MID” value [6] was 14300 nM and the GI50 [6] was 2100 nM.
For `CNC(=O)c1cc(Oc2ccc(NC(=O)Nc3ccc(Cl)c(C(F)(F)F)c3)cc2)ccn1` [Sorafenib, sorafenib], the GI50 (CCRF-CEM) is given as 1990 nM, the GI50 (MOLT-4) is given as 3160 nM and the GI50 (SR) is given as 3160 nM. The GI50 (EKVX) was 2510 nM, the GI50 (HOP-62) was 1990 nM and the GI50 (NCI-H23) was 1990 nM. For the same compound, the GI50 (NCI-H322M) was 2510 nM, the GI50 (NCI-H522) was 1990 nM and the GI50 (SW-620) was 2510 nM. The GI50 (SNB-75) was 3160 nM, the GI50 (M14) was 1990 nM and the GI50 (UACC-257) was 1990 nM. The GI50 (IGROV1) was 2510 nM, the GI50 (OVCAR-5) was 3160 nM and the GI50 (OVCAR-8) was 3160 nM. The GI50 (SK-OV-3) was 2510 nM, the GI50 (786-0) was 3160 nM and the GI50 (A498) was 2510 nM. The GI50 (ACHN) was 2510 nM, the GI50 (CAKI-1) was 3160 nM and the GI50 (RXF 393) was 2510 nM. The GI50 (TK-10) was 3980 nM, the GI50 (UO-31) was 2510 nM and the GI50 (PC-3) was 1990 nM. The GI50 (DU-145) was 3160 nM, the GI50 (MDA-MB-231/ATCC) was 1260 nM and the GI50 (MDA-MB-468) was 1990 nM. For the same compound, the GI50 [1] was 2330 nM, the CC50 [1, 7] was 27800 nM and the “TGI, subpanel average” value [1] was 7640 nM. The GI50 [2] was 1870 nM, the CC50 [2, 7] was 28600 nM and the “TGI, subpanel average” value [2] was 6290 nM. For the same compound, the GI50 [3] was 2890 nM, the CC50 [3, 7] was 71300 nM and the “TGI, subpanel average” value [3] was 14430 nM. For the same compound, the GI50 [4] was 2860 nM, the CC50 [4, 7] was 54800 nM and the “TGI, subpanel average” value [4] was 10860 nM. The GI50 [5] was 2580 nM, the CC50 [5, 7] was 69900 nM and the “TGI, subpanel average” value [5] was 10270 nM. The “TGI MG-MID” value [6] was 9110 nM, the GI50 [6] was 2330 nM and the CC50 ([6]; read-out: LC50 MG-MID) was 43100 nM.
